In publication PMC7917842, “Chlortetracycline, a Novel Arf Inhibitor That Decreases the Arf6-Dependent Invasive Properties of Breast Cancer Cells” (Molecules, 2021):
pIC50: −log10 of the molar value.

Columns and labels:
Arf1 = molecular target: T1, Arf1 (Homo sapiens, UniProt P84077); test: spontaneous mant-GTP loading on purified myrArf1 with azolectin, […] CTC; also ARNO-catalysed exchange; format: biochemical
T1 construct: recombinant myristoylated Arf1 (myrArf1)

Arf6 = molecular target: T2, Arf6 (Homo sapiens, UniProt P62330); test: mant-GTP loading (FRET) on purified Arf6 with EFA6A and azolectin liposomes; also […]GTPγS binding and tryptophan fluorescence; format: biochemical
T2 construct: full-length Arf6, C-terminal hexa-his tag (non myristoylated); also myristoylated Arf6; with EFA6A (exchange factor in the IC50 assay)
T2 sequence (Q8NDX1 whole entry): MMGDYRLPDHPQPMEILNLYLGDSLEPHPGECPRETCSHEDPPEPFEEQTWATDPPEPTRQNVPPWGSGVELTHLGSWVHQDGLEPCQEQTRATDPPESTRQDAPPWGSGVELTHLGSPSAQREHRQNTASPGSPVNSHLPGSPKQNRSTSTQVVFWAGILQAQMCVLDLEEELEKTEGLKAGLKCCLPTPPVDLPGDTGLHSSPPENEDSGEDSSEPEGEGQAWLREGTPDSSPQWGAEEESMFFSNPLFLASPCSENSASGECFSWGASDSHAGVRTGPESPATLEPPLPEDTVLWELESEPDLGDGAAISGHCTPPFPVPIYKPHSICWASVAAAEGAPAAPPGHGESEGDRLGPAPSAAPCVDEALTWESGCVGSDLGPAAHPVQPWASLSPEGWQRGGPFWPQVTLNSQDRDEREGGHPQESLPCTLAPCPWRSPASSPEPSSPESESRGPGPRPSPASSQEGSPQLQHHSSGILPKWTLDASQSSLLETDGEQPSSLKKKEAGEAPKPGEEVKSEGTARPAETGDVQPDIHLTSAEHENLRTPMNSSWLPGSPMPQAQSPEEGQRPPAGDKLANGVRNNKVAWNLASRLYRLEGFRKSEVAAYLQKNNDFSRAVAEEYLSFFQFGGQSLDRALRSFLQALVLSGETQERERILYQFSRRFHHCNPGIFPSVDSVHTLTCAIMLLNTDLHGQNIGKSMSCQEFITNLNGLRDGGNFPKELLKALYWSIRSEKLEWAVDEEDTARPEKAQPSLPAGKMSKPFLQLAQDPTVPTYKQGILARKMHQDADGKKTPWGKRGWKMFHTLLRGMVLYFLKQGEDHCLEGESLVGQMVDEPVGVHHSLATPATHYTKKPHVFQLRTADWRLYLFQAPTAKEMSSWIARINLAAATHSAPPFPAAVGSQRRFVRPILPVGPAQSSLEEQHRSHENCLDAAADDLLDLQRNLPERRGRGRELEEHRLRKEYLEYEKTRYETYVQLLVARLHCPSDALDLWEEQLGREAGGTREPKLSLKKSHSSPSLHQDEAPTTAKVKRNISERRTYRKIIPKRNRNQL
T2 sequence (P62330 2-175): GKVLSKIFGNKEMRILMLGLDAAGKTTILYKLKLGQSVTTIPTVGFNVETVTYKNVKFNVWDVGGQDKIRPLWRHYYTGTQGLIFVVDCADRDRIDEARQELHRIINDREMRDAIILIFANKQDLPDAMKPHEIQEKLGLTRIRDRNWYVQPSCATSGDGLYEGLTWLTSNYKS

T1 sequence (P84077 2-181): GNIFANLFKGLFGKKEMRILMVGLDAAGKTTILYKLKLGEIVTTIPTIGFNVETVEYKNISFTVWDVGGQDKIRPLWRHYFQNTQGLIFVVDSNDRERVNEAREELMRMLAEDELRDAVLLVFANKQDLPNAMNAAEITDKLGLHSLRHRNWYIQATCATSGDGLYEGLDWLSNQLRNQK

In the case of `CN(C)[C@@H]1C(O)=C(C(N)=O)C(=O)[C@@]2(O)C(O)=C3C(=O)c4c(O)ccc(Cl)c4[C@@](C)(O)[C@H]3C[C@@H]12` [CTC, chlortetracycline], the “spontaneous mant-GTP loading on purified myrArf1 with azolectin, 100 μM CTC; als” value (Arf1) was “CTC was able to strongly inhibit the spontaneous activation on the myristoylated forms of Arf6 (myrArf6) and Arf1 (myrArf1)” and the pIC50 (Arf6) was 4.12.
